Assay results as given in US9789127B2, “N-acyl-phosphatidyl-ethanolamines and/or mixtures of N-acyl-ethanolamines with phosphatidic acids or lysophosphatidic acids” (HUNZA DI PISTOLESI ELVIRA & C. S.A.S., priority 2003, dated 2017).

Assays:
ghost erythrocytes = assay: Membrane fluidity of ghost erythrocytes (TMA-DPH fluorescent probe) of rats on a high-calorie, high-fat, high-cholesterol diet; assay type: in vivo, rat; conditions: expressed as a % of the control values at time 0; rats after 20 day diet treatment, substance in the diet
Procedure: (§1) In the experimental tests, the rats were given a high-calorie, high-triglyceride, high-cholesterol diet. The following parameters were evaluated after twenty days treatment: • 1) effect of the compositions on the lipoperoxide levels in the plasma, liver, brain and heart; • 2) effect of the compositions on variations in body weight; • 3) effect of the compositions on variations in membrane fluidity of ghost erythrocytes and plasma platelets; • 4) effect of the compositions on the functionality of the hepatic mitochondria, evaluated by measuring: a) O2 consumption; b) reduced glutathione; c) the potential of the mitochondrial membranes; • 5) effect of the compositions on plasma levels of total cholesterol and HDL-cholesterol; • 6) effect of the compositions on plasma levels of total triglycerides.
(§2) 80 Male rats weighing 150-200 g each were used. […] The animals were given the same diet as the controls for 20 days, except that 50 mg of NOPE and 25 mg of B.F. (corresponding to ˜75 mg of the preparation described in example 6) replaced the same quantity of olive oil (olive oil used: 4.825%). • 7th group: treated with green tea bioflavones (B.F.). The animals were given the same diet as the controls for 20 days, except that 25 mg of B.F. replaced the same quantity of olive oil (olive oil used: 4.875%). […]

plasma platelets = assay: Membrane fluidity of plasma platelets (TMA-DPH fluorescent probe) of rats on a high-calorie, high-fat, high-cholesterol diet; assay type: in vivo, rat; conditions: expressed as a % of the control values at time 0; rats after 20 day diet treatment, substance in the diet
Procedure: as §1, §2

[1] = tested on: lipoperoxide levels (malonyldialdehyde, MDA); assay: Lipoperoxide levels (malonyldialdehyde) in plasma, liver, brain and heart of rats on the diet; assay type: in vivo, rat; conditions: rats after 20 day diet treatment
Procedure: as §1
(§3) 80 Male rats weighing 150-200 g each were used. The animals were divided into 8 groups of 10 animals: • 1st group: control (C); 10 animals (control at time 0) were used as is, and 10 were given a standard high-calorie, high-fat, high-cholesterol diet for 20 days, consisting of: • casein: 20%; mixture of trace elements and mineral salts: 3.5%; mixture of vitamins: 0.1%; choline bitartrate: 0.2%; cellulose: 2%; cholesterol: 0.5%; sodium cholate: 0.25%; saccharose: 58.44%, lard: 10.0% and olive oil: 4.9%. • 2nd group: treated with N-oleoyl-ethanolamine as such (NOE); the animals were given the same diet as the controls for 20 days, except that 50 mg of NOE replaced the same quantity of olive oil (olive oil used: 4.85%). • 3rd group: treated with N-oleoyl-phosphatidylethanolamine prepared as described in example 1 (NOPE); the animals were given the same diet as the controls for 20 days, except that 50 mg of NOPE (prepared as described in example 1) replaced the same quantity of olive oil (olive oil used: 4.85%). • 4th group: treated with N-oleoyl-ethanolamine+phosphatidic acid prepared as described in example 2: (NOE+PA); the animals were given the same diet as the controls for 20 days, except that 400 mg of the preparation described in example 2 (containing ˜50 mg of NOE and 150 mg of PA) replaced the same quantity of olive oil (olive oil used: 4.50%). • 5th group: treated with N-oleoyl-ethanolamine+lysophosphatidic acid prepared as described in example 3: (NOE+LPA); the animals were given the same diet as the controls for 20 days, except that 150 mg of the preparation described in example 3 (containing ˜50 mg of NOE and 100 mg of LPA) replaced the same quantity of olive oil (olive oil used: 4.75%). • 6th group: treated with “phosphobioflavonic complexes” of N-oleoyl-phosphatidylethanolamine and green tea bioflavones (B.F.) prepared as described in example 6 (NOPE+B.F.). The animals were given the same diet as the controls for 20 days, except that 50 mg of NOPE and 25 mg of B.F. (corresponding to ˜75 mg of the preparation described in example 6) replaced the same quantity of olive oil (olive oil used: 4.825%). • 7th group: treated with green tea bioflavones (B.F.). The animals were given the same diet as the controls for 20 days, except that 25 mg of B.F. replaced the same quantity of olive oil (olive oil used: 4.875%).
Malonyldialdehyde is assayed in accordance with the procedure described by K. Yagi et al., 1982, in “Lipid Peroxides in Biology and Medicine”, Academic Press, New York, 99.324-340.

[2] = Plasma total cholesterol, HDL cholesterol and triglyceride levels of rats on the diet; assay type: in vivo, rat; conditions: rats after 20 day diet treatment
Procedure: as §1, §3

[3] = Variation in body weight of rats on the diet; assay type: in vivo, rat; conditions: rats after 20 day diet treatment
Procedure: as §1
(§4) 80 Male rats weighing 150-200 g each were used. […] The animals were given the same diet as the controls for 20 days, except that 50 mg of NOPE and 25 mg of B.F. (corresponding to ˜75 mg of the preparation described in example 6) replaced the same quantity of olive oil (olive oil used: 4.825%). • 7th group: treated with green tea bioflavones (B.F.). The animals were given the same diet as the controls for 20 days, except that 25 mg of B.F. replaced the same quantity of olive oil (olive oil used: 4.875%).

hepatic mitochondria [4] = assay: Functionality of hepatic mitochondria: hepatocellular O2 consumption; assay type: in vivo, rat; conditions: rats after 20 day diet treatment
Procedure: as §1, §2

hepatic mitochondria [5] = assay: Functionality of hepatic mitochondria: reduced hepatocellular glutathione content; assay type: in vivo, rat; conditions: rats after 20 day diet treatment
Procedure: as §1, §2

hepatic mitochondria [6] = assay: Functionality of hepatic mitochondria: mitochondrial membrane potential; assay type: in vivo, rat; conditions: control rats at time 0 = 100%; rats after 20 day diet treatment
Procedure: as §1, §2

[7] = Experimental tests on rats, 20 day diet treatment: overall assessment of Tables I-IV; assay type: in vivo, rat; conditions: oral administration, 20 days
Procedure: as §1, §4

[8] = Diet treatment tests carried out on man; assay type: in vivo; conditions: oral administration
Text: A series of experimental tests on rats and clinical tests on man have been carried out to study the pharmacological and/or dietetic characteristics of the composition of the invention.
In all the diet treatment tests carried out on man, the effects obtainable by orally the formulations claimed by the invention (NAPE; NAE+PA; NAE+LPA; NAPE+B.F. and NAE plus PA and/or LPA+B.F.) always provided highly significant results and advantages, both in preventing biological signs of aging (improvement in mitochondrial activity, better membrane fluidity, improvement in plasma antioxidant defences, and limited weight increase) and improving the clinical parameters tested in relation to prevention of aging, and many of the metabolic disorders associated therewith.

Compound	Membrane fluidity (ghost erythrocytes) (ghost erythrocytes) [%]	Membrane fluidity (plasma platelets) (plasma platelets) [%]	MDA BRAIN [1]	MDA HEART [1]	MDA LIVER [1]	MDA PLASMA [1]	HDL cholesterol [2] [mg/dL]	Total cholesterol [2] [mg/dL]	Total triglycerides [2] [mg/dL]	Body weight [3] [gm]	Hepatocellular O2 consumption (hepatic mitochondria [4])	Reduced glutathione (hepatic mitochondria [5]) [nmoles × 10^6 cells]	Mitochondrial membrane potential (hepatic mitochondria [6]) [%]	Statistical significance of the effects of Tables I-IV (membrane fluidity, antioxidant defences, body weight, cholesterol and triglycerides, mitochondria) [7]	Benefit in preventing biological signs of aging and improving clinical parameters [8]
CCCCCCCC/C=C\CCCCCCCC(=O)NCCO [NOE, N-oleoyl-ethanolamine]	72	70	106 ± 7 nmoles of malonyldialdehyde (MDA) per gram of tissue	44 ± 9 nmoles of malonyldialdehyde (MDA) per gram of tissue	44.1 ± 8.2 nmoles of malonyldialdehyde (MDA) per gram of tissue	5.0 ± 0.6 nmoles of malonyldialdehyde (M	28.9 ± 2.8	120.4 ± 12.7	80.5 ± 6.8	221 ± 16	368 ± 52 umoles O2/min per 10^7 cells	36 ± 6	70	no statistically significant benefit	no significant benefit
N-oleoyl-phosphatidylethanolamine [NOPE]	84	81	85 ± 9 nmoles of malonyldialdehyde (MDA) per gram of tissue	32 ± 7 nmoles of malonyldialdehyde (MDA) per gram of tissue	33.1 ± 6.5 nmoles of malonyldialdehyde (MDA) per gram of tissue	3.8 ± 0.4 nmoles of malonyldialdehyde (M	31.6 ± 3.9	110.3 ± 10.1	71.4 ± 8.7	209 ± 18	408 ± 62 umoles O2/min per 10^7 cells	41 ± 5	81	always statistically significant	–
